Test results taken from patent US10172355B2, “Safened herbicidal compositions including 4-amino-3-chloro-5-fluoro-6-(4-chloro-2-fluoro-3-methoxyphenyl)pyridine-2-carboxylic acid or a derivative thereof for use in rice” (Dow AgroSciences LLC, priority 2012, dated 2019).
Read-outs that look alike come from different tables or passages of the source.

Experiments:
ORYSA=Orysa sativa, Rice = assay: Postemergence foliar-applied herbicides and safeners in direct-seeded rice, visual injury; format: in vivo; details: for Visual crop injury (%) at 140 g/ha: Oryza sativa, 480 h, read-out: Visual Injury (%) - 20 DAA ORYSA-‘Clearfield 171’ Obs, foliar, Compound A form 140 g ae/ha alone; for Visual crop injury (%) at 140 g/ha / Visual Injury (%) - 21 DAA ORYSA-‘Clearfield 171’ Obs / Visual Injury (%) - 21 DAA ORYSA-‘Neptune’ Obs / Visual Injury (%) - 21 DAA ORYSA-‘Wells’ Obs: foliar; for Visual Injury (%) - 21 DAA ORYSA-‘Clearfield 171’ Obs / Visual Injury (%) - 21 DAA ORYSA-‘Neptune’ Obs / Visual Injury (%) - 21 DAA ORYSA-‘Wells’ Obs: Compound A form 70 g ae/ha alone, Tables 1,2,7,8; for Mean Visual Injury (%) - 20-22 DAA ORYSA ‘Clearfield 171’ / Mean Visual Injury (%) - 20-22 DAA ORYSA ‘Wells’: post-emergence foliar
Source text: (§1) Seeds or nutlets of the desired test plant species were planted in a soil matrix prepared by mixing a loam or sandy loam soil (e.g., 28.6 percent silt, 18.8 percent clay, and 52.6 percent sand, with a pH of about 5.8 and an organic matter content of about 1.8 percent) and calcareous grit in an 80 to 20 ratio. The soil matrix was contained in plastic pots with a surface area of 84.6 square centimeters (cm^2). When required to ensure good germination and healthy plants, a fungicide treatment and/or other chemical or physical treatment was applied. The plants were grown for 8-22 days in a greenhouse with an approximate 14 hr photoperiod which was maintained at about 29° C. during the day and 26° C. during the night. Nutrients (Peters Excel 15-5-15 5-Ca 2-Mg and iron chelate) were applied in the irrigation solution as needed and water was added on a regular basis. Supplemental lighting was provided with overhead metal halide 1000-Watt lamps as necessary. The plants were employed for testing when they reached the second or third true leaf stage.
(§2) Treatments consisted of the acid or esters of 4-amino-3-chloro-5-fluoro-6-(4-chloro-2-fluoro-3-methoxy-phenyl)pyridine-2-carboxylic acid (compound A) and various safener components alone and in combination. Forms of compound A were applied on an acid equivalent basis. Safener components were applied on an active ingredient or acid equivalent basis depending on the compound.
(§3) Treatment requirements were calculated based upon the rates being tested, the concentration of active ingredient or acid equivalent in the formulation, and a 12 mL application volume at a rate of 187 L/ha.
(§4) For treatments comprised of formulated compounds, measured amounts of compounds were placed individually in 25 mL glass vials and diluted in a volume of 1.25% (v/v) Agri-dex crop oil concentrated to obtain 12× stock solutions. […] Application solutions were prepared by adding an appropriate amount of each stock solution (e.g., 1 mL) and diluted to the appropriate final concentrations with the addition of 10 mL of an aqueous mixture of 1.25% (v/v) Agri-dex crop oil concentrate so that the final spray solutions contained 1.25% (v/v) Agri-dex crop oil concentrate.
(§5) For treatments comprised of technical compounds, weighed amounts were placed individually in 25 mL glass vials and dissolved in a volume of 97:3 v/v acetone/DMSO to obtain 12× stock solutions. […] Application solutions were prepared by adding an appropriate amount of each stock solution (e.g., 1 mL) and diluted to the appropriate final concentrations with the addition of 10 mL of an aqueous mixture of 1.5% (v/v) Agri-dex crop oil concentrate so that the final spray solutions contained 1.25% (v/v) Agri-dex crop oil concentrate. When technical materials were used, the concentrated stock solutions were added to the spray solutions so that the final acetone and DMSO concentrations of the application solutions were […], respectively.
(§6) For treatments comprised of formulated and technical compounds, weighed amounts of the technical materials were placed individually in 25 mL glass vials and dissolved in a volume of 97:3 v/v acetone/DMSO to obtain 12× stock solutions, and measured amounts of the formulated compounds were placed individually in 25 mL glass vials and diluted in a volume of 1.5% (v/v) Agri-dex crop oil concentrate or water to obtain 12× stock solutions. […] Application solutions were prepared by adding an appropriate amount of each stock solution (e.g., 1 mL) and diluted to the appropriate final concentrations with the addition of an appropriate amount of an aqueous mixture of 1.5% (v/v) Agri-dex crop oil concentrate so that the final spray solutions contained 1.25% (v/v) Agri-dex crop oil concentrate. When required, additional water and/or 97:3 v/v acetone/DMSO was added to individual application solutions so that the final acetone and DMSO concentrations of the application solutions being compared were 8.1% and 0.25%, respectively. […]

[1] = system: ECHCG=Echinochloa crus-galli; assay: Postemergence foliar-applied herbicides and safeners, visual injury of weed; format: in vivo; details: for pest or weed control at 140 g/ha: Echinochloa crus-galli, foliar, 480 h, read-out: Visual Injury (%) - 20 DAA ECHCG Obs, foliar, Compound A form 140 g ae/ha alone; for Mean Visual Injury (%) - 20-22 DAA ECHCG: post-emergence foliar
Source text: as §1, §2, §3, §4, §5, §6

SMILES | Visual crop injury (%) at 140 g/ha (ORYSA=Orysa sativa, Rice; trial of Tables 3,4,6,10,12,14) | Visual crop injury (%) at 140 g/ha (ORYSA=Orysa sativa, Rice; trial of Tables 5,9,11,13) | Visual Injury (%) - 21 DAA ORYSA-‘Clearfield 171’ Obs (ORYSA=Orysa sativa, Rice) | Visual Injury (%) - 21 DAA ORYSA-‘Neptune’ Obs (ORYSA=Orysa sativa, Rice) | Visual Injury (%) - 21 DAA ORYSA-‘Wells’ Obs (ORYSA=Orysa sativa, Rice) | Mean Visual Injury (%) - 20-22 DAA ORYSA ‘Clearfield 171’ (ORYSA=Orysa sativa, Rice; 2 g ae/ha) | Mean Visual Injury (%) - 20-22 DAA ORYSA ‘Wells’ (ORYSA=Orysa sativa, Rice; 2 g ae/ha) | Mean Visual Injury (%) - 20-22 DAA ORYSA ‘Clearfield 171’ (ORYSA=Orysa sativa, Rice; 4 g ae/ha) | Mean Visual Injury (%) - 20-22 DAA ORYSA ‘Wells’ (ORYSA=Orysa sativa, Rice; 4 g ae/ha) | Mean Visual Injury (%) - 20-22 DAA ORYSA ‘Clearfield 171’ (ORYSA=Orysa sativa, Rice; 8 g ae/ha) | Mean Visual Injury (%) - 20-22 DAA ORYSA ‘Wells’ (ORYSA=Orysa sativa, Rice; 8 g ae/ha) | Mean Visual Injury (%) - 20-22 DAA ORYSA ‘Clearfield 171’ (ORYSA=Orysa sativa, Rice; 16 g ae/ha) | Mean Visual Injury (%) - 20-22 DAA ORYSA ‘Wells’ (ORYSA=Orysa sativa, Rice; 16 g ae/ha) | Mean Visual Injury (%) - 20-22 DAA ORYSA ‘Clearfield 171’ (ORYSA=Orysa sativa, Rice; 32 g ae/ha) | Mean Visual Injury (%) - 20-22 DAA ORYSA ‘Wells’ (ORYSA=Orysa sativa, Rice; 32 g ae/ha) | pest or weed control at 140 g/ha ([1]; trial of Tables 3,4,6,10,12,14) | pest or weed control at 140 g/ha ([1]; trial of Tables 5,9,11,13) | Mean Visual Injury (%) - 20-22 DAA ECHCG ([1]; 2 g ae/ha) | Mean Visual Injury (%) - 20-22 DAA ECHCG ([1]; 4 g ae/ha) | Mean Visual Injury (%) - 20-22 DAA ECHCG ([1]; 8 g ae/ha) | further results
COc1c(Cl)ccc(-c2nc(C(=O)O)c(Cl)c(N)c2F)c1F [Acid, 4-amino-3-chloro-6-(4-chloro-2-fluoro-3-methoxyphenyl)-5-fluoropyridine-2-carboxylic acid] | 43% | 38% | 22% | 40% | 12% | 0% | 0% | 0% | 0% | 2% | 0% | 11% | 7% | 24% | 12% | 98% | 96% | 57% | 81% | 91% | Mean Visual Injury (%) - 20-22 DAA ECHCG ([1]; 16 g ae/ha): 95%; Mean Visual Injury (%) - 20-22 DAA ECHCG ([1]; 32 g ae/ha): 96%
COc1c(Cl)ccc(-c2nc(C(=O)OCc3ccccc3)c(Cl)c(N)c2F)c1F [Benzyl] | 13% | 15% | 0% | 5% | 0% | 0% | 0% | 0% | 0% | 0% | 0% | 8% | 3% | 3% | 3% | 98% | 99% | 63% | 91% | 94% | Mean Visual Injury (%) - 20-22 DAA ECHCG ([1]; 16 g ae/ha): 95%; Mean Visual Injury (%) - 20-22 DAA ECHCG ([1]; 32 g ae/ha): 96%
